Patent US6110955A, “Metabolically stabilized oxyalkylene esters and uses thereof” (Beacon Laboratories, Inc., priority 1997, dated 2000)

Key:
[1] = system: β-globin disorders (β-thalassemia and sickle-cell anemia); settings: β-thalassemia and sickle-cell anemia patients; cited from earlier work
SK-N-SH = experiment: Clonogenicity in soft agar (growth inhibition); format: cell-based, human; settings: Homo sapiens, read-out: clones relative to media-treated control cultures
Method: (§1) Inhibition of cancer cell growth in agar culture--clonogenicity was tested using cell lines as follows:
(§2) Cells were harvested, washed in complete media, and counted.
(§3) After overnight culture, AB or α-methyl-4-(2-methylpropyl)-benzeneacetyloxymethyl butyrate was added at the indicated concentration. The control cells received media alone.

NBAS-5 = experiment: Clonogenicity in soft agar (growth inhibition); format: cell-based, human; settings: Homo sapiens
Method: as §1, §2, §3

IMR-32 = experiment: Clonogenicity in soft agar (growth inhibition); format: cell-based, human; settings: Homo sapiens, read-out: clones relative to media-treated control cultures
Method: as §1, §2, §3

NBL-S = experiment: Clonogenicity in soft agar (growth inhibition); format: cell-based, human; settings: Homo sapiens
Method: as §1, §2, §3

OVCAR-5 = experiment: Inhibition of cancer cell growth, sulforhodamine B (SRB) method; format: cell-based; settings: Homo sapiens
Method: (§4) Inhibition of cancer cell growth was measured by the sulforhodamine B (SRB) method as described by Monks et al., J. Nat. Canc. Inst., (1991), 83: 757-766, incorporated herein in its entirety. The SRB assay is recognized by the National Institute for Cancer (NCI) as a reliable screen for anticancer drugs and is used by the NCI for this purpose. […] (FIGS. 3A-3D).

LOX IMVI = experiment: as above; format: cell-based; settings: Homo sapiens
Method: as §4

MCF7 = experiment: as above; format: cell-based; settings: Homo sapiens
Method: as §4

CFPAC = experiment: as above; format: cell-based; settings: Homo sapiens
Method: as §4

[2] = system: human neuroblastoma cell lines; experiment: Clonogenicity across the neuroblastoma cell lines (summary); format: cell-based
Method: as §1, §2, §3

B16 melanoma = settings: cited from earlier work
nuclear deacetylase(s) = settings: cited from earlier work
cancer patients = settings: clinical trials; cited from earlier work

Structure (SMILES): CCCC(=O)O [AB, arginine butyrate, reference compound]
- reported side effects [1]: hypokalemia, headache, nausea and vomiting
- activity at 100 µM (SK-N-SH; 100 μM): 99 ± 1%
- activity at 250 µM (SK-N-SH; 250 μM): 81 ± 1%
- activity at 500 µM (SK-N-SH; 500 μM): 75 ± 9%
- activity at 1000 µM (SK-N-SH; 1000 μM): 54 ± 2%
- activity at 2000 µM (SK-N-SH; 2000 μM): 24 ± 1%
- IC50 (NBAS-5; NBAS-5): 833 µM
- activity at 100 µM (NBAS-5; NBAS-5, 100 μM, read-out: clones relative to media-treated control cultures): 85 ± 1%
- activity at 250 µM (NBAS-5; NBAS-5, 250 μM, read-out: clones relative to media-treated control cultures): 78 ± 2%
- activity at 500 µM (NBAS-5; NBAS-5, 500 μM, read-out: clones relative to media-treated control cultures): 68 ± 2%
- activity at 1000 µM (NBAS-5; NBAS-5, 1000 μM, read-out: clones relative to media-treated control cultures): 53%
- activity at 2000 µM (NBAS-5; NBAS-5, 2000 μM, read-out: clones relative to media-treated control cultures): 25%
- activity at 100 µM (IMR-32; IMR-32, 100 μM): 108%
- activity at 250 µM (IMR-32; IMR-32, 250 μM): 104%
- activity at 500 µM (IMR-32; IMR-32, 500 μM): 69 ± 7%
- activity at 1000 µM (IMR-32; IMR-32, 1000 μM): 49%
- activity at 2000 µM (IMR-32; IMR-32, 2000 μM): 21%
- IC50 (NBL-S): 701 µM
- IC90 (NBL-S): 2000 µM
- inhibition at 31.25 pM (OVCAR-5; OVCAR-5, dosage 0.03125 nM): 0%
- inhibition at 62.5 pM (OVCAR-5; OVCAR-5, dosage 0.06250 nM): 0.1%
- inhibition at 0.000125 µM (OVCAR-5; OVCAR-5, dosage 0.12500 nM): 0.5%
- inhibition at 0.00025 µM (OVCAR-5; OVCAR-5, dosage 0.25000 nM): 0.3%
- inhibition at 0.0005 µM (OVCAR-5; OVCAR-5, dosage 0.50000 nM): 1.3%
- inhibition at 0.001 µM (OVCAR-5; OVCAR-5, dosage 1.00000 nM): 2.5%
- inhibition at 0.002 µM (OVCAR-5; OVCAR-5, dosage 2.00000 nM): 6.6%
- inhibition at 0.004 µM (OVCAR-5; OVCAR-5, dosage 4.00000 nM): 29.3%
- inhibition at 31.25 pM (LOX IMVI; dosage 0.03125 nM): 0%
- inhibition at 62.5 pM (LOX IMVI; dosage 0.06250 nM): 1.4%
- inhibition at 0.000125 µM (LOX IMVI; dosage 0.12500 nM): 1.5%
- inhibition at 0.00025 µM (LOX IMVI; dosage 0.25000 nM): 3.1%
- inhibition at 0.0005 µM (LOX IMVI; dosage 0.50000 nM): 1.8%
- inhibition at 0.001 µM (LOX IMVI; dosage 1.00000 nM): 11.8%
- inhibition at 0.002 µM (LOX IMVI; dosage 2.00000 nM): 10.7%
- inhibition at 0.004 µM (LOX IMVI; dosage 4.00000 nM): 23.3%
- inhibition at 31.25 pM (MCF7; MCF7, dosage 0.03125 nM): 0.3%
- inhibition at 62.5 pM (MCF7; MCF7, dosage 0.06250 nM): 0.2%
- inhibition at 0.000125 µM (MCF7; MCF7, dosage 0.12500 nM): 0%
- inhibition at 0.00025 µM (MCF7; MCF7, dosage 0.25000 nM): 0.1%
- inhibition at 0.0005 µM (MCF7; MCF7, dosage 0.50000 nM): 0%
- inhibition at 0.001 µM (MCF7; MCF7, dosage 1.00000 nM): 1.2%
- inhibition at 0.002 µM (MCF7; MCF7, dosage 2.00000 nM): 1.8%
- inhibition at 0.004 µM (MCF7; MCF7, dosage 4.00000 nM): 2.2%
- inhibition at 31.25 pM (CFPAC; dosage 0.03125 nM): 6.6%
- inhibition at 62.5 pM (CFPAC; dosage 0.06250 nM): 4.8%
- inhibition at 0.000125 µM (CFPAC; dosage 0.12500 nM): 11.3%
- inhibition at 0.00025 µM (CFPAC; dosage 0.25000 nM): 1%
- inhibition at 0.0005 µM (CFPAC; dosage 0.50000 nM): 1.5%
- inhibition at 0.001 µM (CFPAC; dosage 1.00000 nM): 4.7%
- inhibition at 0.002 µM (CFPAC; dosage 2.00000 nM): 12.8%
- inhibition at 0.004 µM (CFPAC; dosage 4.00000 nM): 16.6%
- inhibition of clonogenicity (in words) [2]: dose-dependent manner

Structure (SMILES): CCCC(=O)O [BA, Butyric acid]
- oncogene expression (B16 melanoma): decrease in the expression of c-myc and H-ras oncogenes in B16 melanoma
- effect on nuclear deacetylase(s) (nuclear deacetylase(s)): inhibition of nuclear deacetylase(s), resulting in hyperacetylation of histones H3 and H4
- efficacy in cancer patients (cancer patients): minimal or transient efficacy
